The structures appear in SMILES notation. In brackets after ≈: the same amount, converted by molar mass. Read-outs that look alike come from different tables or passages of the source.

Data set [1] relates to N. gonorrhoeae clinical isolates. The data set can be described thus: Kirby-Bauer disc diffusion against N. gonorrhoeae clinical isolates. The format is cell-based, Neisseria gonorrhoeae. Particulars: three clinical isolates, 20-24 h. The protocol: (§1) Antimicrobial susceptibility testing: Kirby-Bauer disc diffusion susceptibility tests were used to determine zones of inhibition (ZOIs) for N. gonorrhoeae (ATCC 49226) and three clinical isolates obtained from Louisiana State University Health Sciences Center New Orleans HIV Outpatient Clinic. Kirby-Bauer disc diffusion is one of the CDC's preferred methods of testing the susceptibility of N. gonorrhoeae. Testing was performed according to CLSI recommended procedures. In this susceptibility test, 6 mm diameter blank paper discs were impregnated with known quantities of antimicrobial drug followed by evaporation of solvent; however, ceftriaxone, azithromycin and doxycycline antimicrobial susceptibility discs were purchased from Thermo Fisher Scientific. Impregnated discs were placed onto prepared nutrient agar plates that were inoculated with N. gonorrhoeae to give a confluent lawn of growth. Suspensions of these various strains were prepared in accordance with a 1.0 McFarland standard. Inoculated agar plates were incubated for 20-24 h at 37° C. in a 5% CO2 atmosphere.
(§2) Blank discs were loaded with 50 nmol of GUMBOS, respective constituent compounds and equivalent stoichiometric unreacted mixtures of octenidine and carbenicillin that are equimolar to the purchased ceftriaxone discs (Oxoid™, Thermo Fisher). After 20-24 h incubation, diameters of ZOIs were measured using a ruler. […] Antibacterial activity was improved for octenidine when chloride ions were exchanged for the antibiotic. […] This effect was not seen, however, for an unreacted mixture of the two drugs for either N. gonorrhoeae (ATCC 49226) or clinical isolates. The ZOIs of octenidine/carbenicillin were also larger than or equal to azithromycin and doxycycline ZOIs for N. gonorrhoeae (ATCC 49226). […] This is significant as resistance rates for azithromycin have increased worldwide. Among 57 countries reporting on azithromycin susceptibility, 28 (49%) reported>5% resistance. […] Ceftriaxone produced large ZOIs as the clinical population still remains susceptible to it in the USA (only 0.2% of isolates had elevated resistance to ceftriaxone in 2017).
(Agar diffusion results depend on both activity and mobility in agar.)

Data set [2] concerns Carbapenem-resistant clinical isolate of Klebsiella pneumoniae. The data set can be described thus: MIC by micro-broth dilution against carbapenem-resistant K. pneumoniae. The format is cell-based. The conditions noted are these: CRE K. pneumoniae, MH broth. How it is done: (§3) Minimum Inhibitory Concentrations of GUMBOS against N. gonorrhoeae: Clinical isolates of N. gonorrhoeae and N. gonorrhoeae ATCC 49226 were obtained from Louisiana State University Health Sciences Center New Orleans HIV Outpatient Clinic. Minimum inhibitory concentrations (MICs) of GUMBOS, constituent parent drugs, azithromycin, and unreacted mixtures were determined using micro-broth dilution in 96-well plates. Stock solutions of 1 mM were prepared in deionized water (1% DMSO). Stock solutions were diluted to a known working concentration and 100 μL were added to the first row of the plate. For susceptibility testing of N. gonorrhoeae, media was prepared according to methods reported by Wade and Graver (Fed. Euro. Microbiol. Soc. Microbiol. Letts (2007), 273 (1), 35-37). This liquid medium allowed dense growth of N. gonorrhoeae for use in broth dilution tests. Protein-free liquid media (100 μL) were added to each well and two-fold dilutions were performed. The antibiotic containing wells were inoculated with an equal volume of bacterial inoculum matching a 0.5 McFarland standard. Microtiter plates were incubated for 20-24 hours at 37° C. with 5% CO2 and examined for visible signs of bacterial growth as evidenced by turbidity. The lowest concentration of antibiotic that prevents growth is the MIC.
(§4) Minimum Inhibitory Concentrations of GUMBOS against Carbapenem-resistant Enterobacteriaceae: GUMBOS, ceftriaxone, and azithromycin were tested against extended spectrum beta-lactamase (ESBL)-producing gram negative bacteria. Carbapenem-resistant clinical isolates of Escherichia coli, Enterobacter cloacae, and Klebsiella pneumoniae were obtained from Louisiana State University (LSU) Health Sciences Center New Orleans HIV Outpatient Clinic. Minimum inhibitory concentrations were determined as described above using micro-broth dilutions with two minor adjustments, cation-adjusted Mueller Hinton (MH) broth was used instead and stock solutions of test compounds were prepared directly in MH broth.
On the technique in general: In broth dilution the organism is exposed to a series of concentrations in liquid medium.

The subject of data set [3] is Carbapenem-resistant clinical isolates of Escherichia coli. The data set can be described thus: MIC by micro-broth dilution against carbapenem-resistant E. coli. The format is cell-based. Particulars: MH broth. The protocol: as §3, §4
The test system of data set [4] is clinical isolates of N. gonorrhoeae. The data set can be described thus: MIC by micro-broth dilution against N. gonorrhoeae clinical isolates. The format is cell-based, Neisseria gonorrhoeae. Particulars: for MIC: four clinical isolates, micro-broth dilution, 20-24 hours. The protocol: as §3, with “Stock solutions of 1 mM were prepared in deionized water (1% DMSO).” left out, “[…].” for “Graver (Fed.”, “Letts (2007), 273 (1), 35-37).” left out, “Microtiter plates were incubated for 20-24 hours at 37° C. with 5% CO2 and examined for visible signs of bacterial growth as evidenced by turbidity.” left out

The subject of data set [5] is Carbapenem-resistant clinical isolate of Enterobacter cloacae. The data set can be described thus: MIC by micro-broth dilution against carbapenem-resistant E. cloacae. The format is cell-based. The conditions noted are these: CRE E. cloacae, MH broth. How it is done: as §3, §4
Data set [6] has as its system N. gonorrhoeae ATCC 49226. The data set is described as follows: MIC by micro-broth dilution against N. gonorrhoeae ATCC 49226. The format is cell-based, Neisseria gonorrhoeae. The conditions noted are these: for MIC: ATCC 49226, micro-broth dilution, 20-24 hours. How it is done: as §3, with “Stock solutions of 1 mM were prepared in deionized water (1% DMSO).” left out, “[…].” for “Graver (Fed.”, “Letts (2007), 273 (1), 35-37).” left out, “Microtiter plates were incubated for 20-24 hours at 37° C. with 5% CO2 and examined for visible signs of bacterial growth as evidenced by turbidity.” left out

In data set [7] the test system is N. gonorrhoeae ATCC 49226. The data set can be described thus: Kirby-Bauer disc diffusion against N. gonorrhoeae ATCC 49226. The format is cell-based, Neisseria gonorrhoeae. Particulars: for Zone size, mm (±SD): ATCC 49226, disc diffusion, 20-24 h; for Zone sizes against CLSI susceptibility range: N. gonorrhoeae (ATCC 49226) and three clinical isolates. The protocol: as §1, §2

A further data set relates to HeLa cells. The data set can be described thus: MTT cytotoxicity assay of ceftriaxone-based GUMBOS. The format is cell-based. The conditions noted are these: for IC50: read-out: Acute cytotoxicity (IC50); for Relative cell toxicity (in words): comparison with mixture or parent antiseptic. The protocol:
Cytotoxicity Assay of GUMBOS: Cytotoxicity of GUMBOS, unreacted mixtures, and antiseptics towards healthy cells were evaluated using the MTT assay, a colorimetric dye assay, according to manufacturer's instructions. […] Stock solutions of antimicrobial agents in cell medium (1% MeOH) were diluted to a known working concentration, doubly diluted, and transferred to seeded cells. […] Cells treated with only DMEM were used as a negative control. After incubation, 15 μL of MTT were added to each well and cells were further incubated for an hour. Sodium dodecyl sulfate dimethylformamide solution was added after this additional incubation time in order to dissolve the purple formazan crystals. Cell viability was quantified at 570 nm using a microplate spectrophotometer (Eppendorf PlateReader AF2200, Hauppauge, NY). Cell viability as a percentage was determined as the ratio between treated cells and untreated (control) cells taken as 100%.

Data set [8] in a line: Octanol-water partition coefficient (Log P), shake-flask method.
Description: Octanol-Water Partition Coefficient: To determine the relative lipophilic strength of GUMBOS, the logarithmic octanol-water partition coefficient (Log P) was measured. It is a ratiometric parameter based on the concentration of therapeutic agent in either phase of the two-phase system (octanol and water) when at equilibrium (Equation 1). Specifically, a shake-flask method was used. To prevent minimal solvent miscibility, an equal amount of water and 1-octanol were mixed together for 24 hours and subsequently allowed to separate. The octanol layer was used to generate a calibration curve from the absorbance of the compound at various concentrations. An equal volume of saturated water was added to a flask of known concentration (Ci) chosen from the calibration curve. This mixture was stirred for a minimum of two hours and left undisturbed to allow the two solvent layers to separate. The absorbance of the therapeutic salt in the octanol layer was determined (Co). Thus, the concentration of therapeutic agent in water was determined using Ci−Co=Cw.
However, octanol-water partition coefficients were measured for GUMBOS using the shake flask method to further explore the lipophilic properties of these compounds.

One may read the MIC as the lowest concentration that inhibits growth of the organism. Turning to `CC[C@H]1OC(=O)[C@H](C)[C@@H](O[C@H]2C[C@@](C)(OC)[C@@H](O)[C@H](C)O2)[C@H](C)[C@@H](O[C@@H]2O[C@H](C)C[C@H](N(C)C)[C@H]2O)[C@](C)(O)C[C@@H](C)CN(C)[C@H](C)[C@@H](O)[C@]1(C)O` [Azithromycin, azithromycin], the figures for the “Zone size, mm (±SD)” value in data set [1] and in [7] were 36 ± 4 mm and 40 ± 1 mm, respectively. Further, the MIC in data set [2] (Klebsiella pneumoniae) was 250 µM (≈ 187 µg/mL); in data set [3] (Escherichia coli, CRE E. Coli (Isolate 2)) it was 250 µM (≈ 187 µg/mL); in data set [3] (Escherichia coli, CRE E. coli (Isolate 1)) it was more than 500 µM; in data set [4] (Neisseria gonorrhoeae, read-out: MIC), 0.6 ± 0.2 µM (≈ 0.449 µg/mL); in [5] (Enterobacter cloacae), 250 µM (≈ 187 µg/mL); in [6] (Neisseria gonorrhoeae, ATCC49226), 0.8 µM (≈ 0.599 µg/mL). The “Concentration required for growth inhibition, fold greater than GUMBOS” value in [4] (N. gonorrhoeae clinical isolates) is on record as “six to nine”. In data set [7], the “Zone sizes against CLSI susceptibility range” value is “within the susceptibility range set by CLSI”.
Take `CO/N=C(\C(=O)N[C@@H]1C(=O)N2C(C(=O)[O-])=C(CSc3nc(=O)c([O-])nn3C)CS[C@H]12)c1csc(N)n1.[Na+].[Na+]` [Ceftriaxone, Ceftriaxone disodium salt]: the entries for the “Zone size, mm (±SD)” value in data set [1] and in data set [7] were 49 ± 4 mm and 51 ± 1 mm, respectively. Besides, the MIC in data set [2] was more than 500 µM; in [3] (CRE E. Coli (Isolate 2)), more than 500 µM; in data set [3] (CRE E. coli (Isolate 1)), more than 500 µM; in data set [4] (read-out: MIC), 0.02 µM; in [5] it was more than 500 µM; in data set [6] it was 0.04 µM. In addition, the “Concentration as compared to GUMBOS” value in data set [6] (N. gonorrhoeae ATCC 49226) was “half-fold decrease”. Also, the “Zone sizes against CLSI susceptibility range” value in data set [7] is listed as “within the susceptibility range set by CLSI”.
A word on the IC50: it is the concentration needed to halve the response being measured. In the case of `CC(=O)O.CC(=O)O.NC(=N\CCCCCC/N=C(N)/N=C(\N)Nc1ccc(Cl)cc1)/N=C(\N)Nc1ccc(Cl)cc1` [Chlorhexidine diacetate, chlorhexidine diacetate], the IC50 with HeLa cells (15 min) came out at 80.8 ± 4.27 µM; with HeLa cells (60 min), 24.6 ± 0.66 µM. The figures for the MIC in [4] and in [6] were 4.7 ± 1.8 µM and 3.1 µM, respectively.
As for `C[C@H]1c2cccc(O)c2C(=O)C2=C(O)[C@]3(O)C(=O)C(C(N)=O)=C(O)[C@@H](N(C)C)[C@@H]3[C@@H](O)[C@@H]21` [Doxycycline, doxycycline], the figures for the “Zone size, mm (±SD)” value in [1] and in data set [7] were 28 ± 7 mm and 35 ± 0.6 mm, respectively.
Take `CC1(C)S[C@@H]2[C@H](NC(=O)C(C(=O)[O-])c3ccccc3)C(=O)N2[C@H]1C(=O)[O-].[Na+].[Na+]` (some centres unmarked) [Na2 CAR, disodium carbenicillin]: the “Zone size, mm (±SD)” value came to 28 ± 3 mm in data set [1] and 27 ± 3 mm in data set [7].
Broadly, the Log P is the decadic logarithm of the partition coefficient of the neutral form, usually between octanol and water. Low values mean a more hydrophilic compound, high ones a more lipophilic compound. Take `CON=C(C(=O)NC1C(=O)N2C(C(=O)O)=C(CSc3nc(=O)c(O)nn3C)CSC12)c1csc(N)n1.N=C(NCCCCCCNC(=N)NC(=N)Nc1ccc(Cl)cc1)NC(=N)Nc1ccc(Cl)cc1` (centres unmarked) [[CHX][CRO], chlorhexidine-ceftriaxone]: the IC50 worked out at 84.3 ± 5.87 µM in the data set with HeLa cells (15 min) and 45.5 ± 1.42 µM in the data set with HeLa cells (60 min). Besides, the “Relative cell toxicity (in words)” value in the data set with HeLa cells was “only slightly less toxic”; in the data set with HeLa cells (listed as Chlorhexidine-ceftriaxone), “significantly less toxic than its unreacted, stoichiometric mixture”. Moreover, the MIC in [2] is 50 µM; in data set [3] (CRE E. Coli (Isolate 2)), 12.5 µM; in data set [3] (CRE E. coli (Isolate 1)) it was 25 µM; in data set [4], 0.06 ± 0.02 µM; in [5] it was 50 µM; in data set [6] it was 0.08 µM. Also, the “Log P” value in [8] is recorded as 0.2 (±0.1).
For `CCCCCCCCNc1cc[n+](CCCCCCCCCC[n+]2ccc(NCCCCCCCC)cc2)cc1.CON=C(C(=O)NC1C(=O)N2C(C(=O)[O-])=C(CSc3nc(=O)c([O-])nn3C)CSC12)c1csc(N)n1` [[OCT][CRO], octenidine-ceftriaxone], the results for the IC50 in the data set on HeLa cells (15 min) and in the data set on HeLa cells (60 min) were 66.5 ± 8.24 µM and 43.3 ± 5.98 µM, respectively. For the same compound, the “Relative cell toxicity (in words)” value was “significantly less toxic than octenidine dihydrochloride” with HeLa cells and “indifferent toxicity to its unreacted, stoichiometric mixture of parent compounds” in the data set with HeLa cells (listed as octenidine-ceftriaxone). The MIC in [2] was 25 µM; in data set [3] (CRE E. Coli (Isolate 2)), 25 µM; in [3] (CRE E. coli (Isolate 1)), 50 µM; in data set [4] it was 0.09 ± 0.07 µM; in data set [5], 25 µM; in data set [6], 0.08 µM. Further, the “Log P” value in [8] is given as 0.3 (±0.2).

(Values after patent US20240197702A1, “ANTISEPTIC-ANTIBIOTIC GUMBOS EFFECTIVE AGAINST GRAM-NEGATIVE PATHOGENS” (priority 2020, published 2024).)
